pKi: −log10 of the molar value.
Assays:
Serine protease 1 = Serine protease 1 (Homo sapiens, UniProt P07477); test: Compound was evaluated for its binding affinity against trypsin
Plasminogen [1] = target: T1, Plasminogen (Homo sapiens, UniProt P00747); test: (§1) Compound was evaluated for its binding affinity against plasmin
Plasminogen [2] = target: T1, Plasminogen; test: as §1; remark: listed apart in the source
Kallikrein-1 = Kallikrein-1 (Homo sapiens, UniProt P06870); test: Compound was evaluated for its binding affinity against kallikrein
Prothrombin = Prothrombin (Homo sapiens, UniProt P00734); test: Compound was evaluated for its binding affinity against thrombin

T1 sequence (P00747 97-580 limits assumed): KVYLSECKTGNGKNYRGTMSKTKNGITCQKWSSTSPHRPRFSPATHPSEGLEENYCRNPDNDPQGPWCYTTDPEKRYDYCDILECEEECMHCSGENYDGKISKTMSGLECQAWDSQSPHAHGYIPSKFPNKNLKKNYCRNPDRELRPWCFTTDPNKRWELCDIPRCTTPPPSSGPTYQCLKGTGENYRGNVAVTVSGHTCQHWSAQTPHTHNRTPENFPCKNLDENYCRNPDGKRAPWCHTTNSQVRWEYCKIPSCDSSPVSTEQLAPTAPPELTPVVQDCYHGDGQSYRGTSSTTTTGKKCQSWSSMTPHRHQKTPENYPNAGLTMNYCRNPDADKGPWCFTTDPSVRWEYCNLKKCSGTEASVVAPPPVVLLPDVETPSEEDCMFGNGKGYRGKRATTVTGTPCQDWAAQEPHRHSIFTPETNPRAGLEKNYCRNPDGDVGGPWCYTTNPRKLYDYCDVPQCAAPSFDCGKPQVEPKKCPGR
T1 sequence (P00747 581-810 limits assumed): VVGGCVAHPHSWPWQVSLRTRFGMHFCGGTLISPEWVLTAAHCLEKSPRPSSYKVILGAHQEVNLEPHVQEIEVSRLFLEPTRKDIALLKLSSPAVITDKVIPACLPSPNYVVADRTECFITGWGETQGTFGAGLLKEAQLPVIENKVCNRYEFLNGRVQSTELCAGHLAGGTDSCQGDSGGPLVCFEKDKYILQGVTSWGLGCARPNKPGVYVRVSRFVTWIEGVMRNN
Chain of Serine protease 1 (P07477 whole entry): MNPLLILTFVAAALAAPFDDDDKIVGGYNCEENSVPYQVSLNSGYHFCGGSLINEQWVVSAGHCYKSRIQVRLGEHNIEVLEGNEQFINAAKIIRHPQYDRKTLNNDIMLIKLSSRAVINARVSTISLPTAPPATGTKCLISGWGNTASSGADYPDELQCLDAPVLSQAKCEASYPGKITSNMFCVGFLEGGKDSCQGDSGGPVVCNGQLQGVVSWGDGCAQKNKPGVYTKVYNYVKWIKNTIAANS
Chain of Kallikrein-1 (P06870 whole entry): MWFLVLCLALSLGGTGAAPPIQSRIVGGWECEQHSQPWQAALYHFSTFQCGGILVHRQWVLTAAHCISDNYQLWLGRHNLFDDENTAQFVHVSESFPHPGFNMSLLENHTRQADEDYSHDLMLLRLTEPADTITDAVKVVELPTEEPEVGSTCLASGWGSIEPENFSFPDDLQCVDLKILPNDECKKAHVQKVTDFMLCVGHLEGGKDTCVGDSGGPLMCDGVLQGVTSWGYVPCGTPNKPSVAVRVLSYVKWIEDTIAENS

Compound: CC[C@@H](C)[C@@H](N)C(=O)N[C@@H](Cc1ccccc1)C(=O)N(CCCCCCN)C1CSCCC1=O (some centres not stated)
- pKi (Serine protease 1): 2.77
- pKi (Plasminogen [1]): 3.89
- pKi (Plasminogen [2]): 4.30

Compound: NCCCCCCN(CCCCCCN)C1CSCCC1=O (configuration not stated)
- pKi (Serine protease 1): 2.85
- pKi (Plasminogen [2]): 3.40
- pKi (Kallikrein-1): < 2.00
- pKi (Prothrombin): < 2.00

Compound: CC[C@H](C)[C@@H](N)C(=O)N[C@@H](Cc1ccccc1)C(=O)N(CCCCCCN)C1CSCCC1=O (some centres not stated)
- pKi (Kallikrein-1): 3.20
- pKi (Prothrombin): 3.14

Compound: CC[C@@H](C)[C@@H](N)C(=O)N[C@@H](Cc1ccccc1)C(=O)NC1CSCCC1=O (stereo in doubt; form 2)
- pKi (Plasminogen [1]): 2.05

Compound: CC[C@@H](C)[C@@H](N)C(=O)N[C@@H](Cc1ccccc1)C(=O)NC1CSCCC1=O (stereo in doubt; form 1)
- pKi (Plasminogen [1]): 1.80

Compound: CCC(C)[C@@H](N)C(=O)N[C@@H](Cc1ccccc1)C(=O)N(CCCCCCN)C1CCCCC1 (some centres not stated)
- pKi (Plasminogen [1]): 3.28
